{
  "source": "patent US20070218462A1",
  "about": "“Method of Predicting a Benefit of Antioxidant Therapy for Prevention of Cardiovascular Disease in Hiperglycemic Patients” (priority 2003, published 2007)",
  "key": {"[1]": {"test_system": "patients at high risk of cardiovascular events", "assay": "HOPE study: relative risk of primary CV outcomes with vitamin E or ramipril, by haptoglobin phenotype", "assay_type": "in vivo, human", "excerpt": "HOPE study and patient characteristics: The Heart Outcomes Prevention Evaluation (HOPE) study was designed to test the hypotheses that two preventive intervention strategies, namely angiotensin-converting enzyme (ACE) inhibition or vitamin E, would improve morbidity and mortality in patients at high risk of cardiovascular events compared with placebo. Patients were included in the study who were considered to be at high risk of future fatal or non-fatal cardiovascular events, by virtue of their age (>55 years), existing or previous cardiovascular disease, or diabetes. Diabetics had at least one other risk factor, either known vascular disease or other factors such as cigarette smoking, high cholesterol or hypertension. Ramipril or placebo was added to concomitant medication, which included, in a substantial proportion of patients, antihypertensive drugs (excluding ACE-I), lipid-lowering agents or aspirin. The HOPE study design and protocols have been previously described in detail (see, for example, The Heart Outcomes Prevention Evaluation Study Investigators NE J Med, 2000; 342:154-60 and […] Angioten Aldost Sys 2000;1:18-20). Briefly, the study population consisted over 9,451 patients at high risk of CVD (3,654 DM). […] Patients were followed for a mean of 4.5 years. The primary study outcome was the composite of non-fatal MI, stroke or cardiovascular death. For samples from the HOPE Study, haptoglobin phenotyping was performed from 10 ul of plasma by polyacrylamide gel electrophoresis according to established methods (Hochberg I et al Atherosclerosis 2002;161:441-446). A signature banding pattern is obtained from individuals who are homozygous for the 1 allele (Hp 1-1), homozygous for the 2 allele (Hp 2-2) or who are heterozygous at the haptoglobin locus (Hp 2-1). We have established 100% concordance between the haptoglobin phenotype as determined from plasma and the haptoglobin genotype as determined from genomic DNA by the polymerase chain reaction (Koch W, et al Clin Chem 2002; 277:13635-40). An unambiguous haptoglobin phenotype was obtained on greater than 99.6% of all samples assayed. Haptoglobin phenotyping was performed with no knowledge of the patients clinical or treatment status. All analyses of the HOPE Study data were carried out using SAS 6.02. Baseline characteristics of patients according to haptoglobin were compared by t tests or χ^2 tests as appropriate. […] Patient characteristics of HOPE samples undergoing haptoglobin phenotyping: Haptoglobin phenotype was obtained on 3176 patients (1078 diabetics) from the origianl HOPE cohort for whom plasma was originally archived. These patients represented a randomly selected consecutive series of cohort according to CVD risk factors and treatment regimen is shown in Table 4 below."}, "[2]": {"test_system": "unselected samples or Diabetic patients", "assay": "CVD outcomes and Vitamin C supplementation (data not shown)", "assay_type": "in vivo, human"}, "[3]": {"test_system": "patients at high risk of cardiovascular events", "settings": "daily administration of 400 IU for 4.5 years; original HOPE study report; cited from earlier work"}, "[4]": {"settings": "All patients, Hp 1-1, with ramipril vs without ramipril"}, "[5]": {"settings": "All patients, Hp 2-1, with ramipril vs without ramipril"}, "[6]": {"settings": "All patients, Hp 2-2, with ramipril vs without ramipril"}, "[7]": {"settings": "DM Patients only, Hp 1-1, with ramipril vs without ramipril"}, "[8]": {"settings": "DM Patients only, Hp 2-1, with ramipril vs without ramipril"}, "[9]": {"settings": "DM Patients only, Hp 2-2, with ramipril vs without ramipril"}, "[10]": {"settings": "entire sample, regardless of haptoglobin type"}, "[11]": {"settings": "All patients, Hp 1-1, with vitamin E vs without vitamin E"}, "[12]": {"settings": "All patients, Hp 2-1, with vitamin E vs without vitamin E"}, "[13]": {"settings": "All patients, Hp 2-2, with vitamin E vs without vitamin E"}, "[14]": {"settings": "DM Patients only, Hp 1-1, with vitamin E vs without vitamin E"}, "[15]": {"settings": "DM Patients only, Hp 2-1, with vitamin E vs without vitamin E"}, "[16]": {"settings": "DM Patients only, Hp 2-2, with vitamin E vs without vitamin E"}},
  "note": "Entries after “also recorded” stand apart in the source; their conditions may differ.",
  "data": [
    {"molecule": "CCOC(=O)[C@H](CCc1ccccc1)N[C@@H](C)C(=O)N1[C@H](C(=O)O)C[C@@H]2CCC[C@@H]21", "note": "[Ramipril, ramipril]", "values": [
      {"measurement": "Relative Risk Ratio, CV death (95% CI)", "setting": "[1]; [4]", "value": "0.58 (0.29-1.18)"},
      {"measurement": "Relative Risk Ratio, MI (95% CI)", "setting": "[1]; [4]", "value": "0.61 (0.35-1.06)"},
      {"measurement": "Relative Risk Ratio, Primary (95% CI)", "setting": "[1]; [4]", "value": "0.74 (0.47-1.17)"},
      {"measurement": "Relative Risk Ratio, Stroke (95% CI)", "setting": "[1]; [4]", "value": "0.91 (0.33-2.51)"},
      {"measurement": "Relative Risk Ratio, CV death (95% CI)", "setting": "[1]; [5]", "value": "1.02 (0.66-1.58)"},
      {"measurement": "Relative Risk Ratio, MI (95% CI)", "setting": "[1]; [5]", "value": "0.88 (0.64-1.20)"},
      {"measurement": "Relative Risk Ratio, Primary (95% CI)", "setting": "[1]; [5]", "value": "0.81 (0.62-1.07)"},
      {"measurement": "Relative Risk Ratio, Stroke (95% CI)", "setting": "[1]; [5]", "value": "0.68 (0.38-1.21)"},
      {"measurement": "Relative Risk Ratio, CV death (95% CI)", "setting": "[1]; [6]", "value": "0.87 (0.55-1.37)"},
      {"measurement": "Relative Risk Ratio, MI (95% CI)", "setting": "[1]; [6]", "value": "0.83 (0.59-1.17)"},
      {"measurement": "Relative Risk Ratio, Primary (95% CI)", "setting": "[1]; [6]", "value": "0.76 (0.57-1.02)"},
      {"measurement": "Relative Risk Ratio, Stroke (95% CI)", "setting": "[1]; [6]", "value": "0.53 (0.27-1.04)"},
      {"measurement": "Relative Risk Ratio, CV death (95% CI)", "setting": "[1]; [7]", "value": "0.42 (0.13-1.36)"},
      {"measurement": "Relative Risk Ratio, MI (95% CI)", "setting": "[1]; [7]", "value": "0.53 (0.19-1.46)"},
      {"measurement": "Relative Risk Ratio, Primary (95% CI)", "setting": "[1]; [7]", "value": "0.78 (0.35-1.75)"},
      {"measurement": "Relative Risk Ratio, Stroke (95% CI)", "setting": "[1]; [7]", "value": "1.29 (0.21-7.82)"},
      {"measurement": "Relative Risk Ratio, CV death (95% CI)", "setting": "[1]; [8]", "value": "0.97 (0.50-1.88)"},
      {"measurement": "Relative Risk Ratio, MI (95% CI)", "setting": "[1]; [8]", "value": "0.99 (0.81-2.13)"},
      {"measurement": "Relative Risk Ratio, Primary (95% CI)", "setting": "[1]; [8]", "value": "0.97 (0.72-1.61)"},
      {"measurement": "Relative Risk Ratio, Stroke (95% CI)", "setting": "[1]; [8]", "value": "0.58 (0.25-1.34)"},
      {"measurement": "Relative Risk Ratio, CV death (95% CI)", "setting": "[1]; [9]", "value": "0.56 (0.28-1.12)"},
      {"measurement": "Relative Risk Ratio, MI (95% CI)", "setting": "[1]; [9]", "value": "0.57 (0.38-1.12)"},
      {"measurement": "Relative Risk Ratio, Primary (95% CI)", "setting": "[1]; [9]", "value": "0.57 (0.36-0.90)"},
      {"measurement": "Relative Risk Ratio, Stroke (95% CI)", "setting": "[1]; [9]", "value": "0.42 (0.16-1.09)"},
      {"measurement": "benefit of ramipril supplementation for any of the primary CV outcomes", "setting": "[1]; [10]", "value": "no significant benefit"},
      {"measurement": "benefit to ramipril for any of the primary CV outcomes", "setting": "[1]; other haptoglobin phenotypes (Hp 1-1, Hp 1-2)", "value": "no benefit"},
      {"measurement": "benefit of ramipril supplementation", "setting": "[1]; unselected DM group", "value": "no significant benefit"}
    ]},
    {"molecule": "O=C1O[C@H]([C@@H](O)CO)C(O)=C1O", "note": "[Vitamin C]", "values": [
      {"measurement": "correlation between CVD outcomes and Vitamin C supplementation", "setting": "[2]", "value": "no correlation could be found"}
    ]},
    {"molecule": "CC(=O)Oc1c(C)c(C)c2c(c1C)CC[C@@](C)(CCC[C@H](C)CCC[C@H](C)CCCC(C)C)O2", "note": "[Vitamin E, RRR-a-tocophorol acetate]", "values": [
      {"measurement": "Relative Risk Ratio, CV death (95% CI)", "setting": "[1]; [11]", "value": "1.10 (0.56-2.12)"},
      {"measurement": "Relative Risk Ratio, MI (95% CI)", "setting": "[1]; [11]", "value": "0.79 (0.47-1.33)"},
      {"measurement": "Relative Risk Ratio, Primary (95% CI)", "setting": "[1]; [11]", "value": "0.97 (0.63-1.50)"},
      {"measurement": "Relative Risk Ratio, Stroke (95% CI)", "setting": "[1]; [11]", "value": "1.50 (0.56-4.04)"},
      {"measurement": "Relative Risk Ratio, CV death (95% CI)", "setting": "[1]; [12]", "value": "1.07 (0.69-1.64)"},
      {"measurement": "Relative Risk Ratio, MI (95% CI)", "setting": "[1]; [12]", "value": "1.02 (0.75-1.38)"},
      {"measurement": "Relative Risk Ratio, Primary (95% CI)", "setting": "[1]; [12]", "value": "0.96 (0.74-1.25)"},
      {"measurement": "Relative Risk Ratio, Stroke (95% CI)", "setting": "[1]; [12]", "value": "0.92 (0.53-1.60)"},
      {"measurement": "Relative Risk Ratio, CV death (95% CI)", "setting": "[1]; [13]", "value": "0.75 (0.48-1.16)"},
      {"measurement": "Relative Risk Ratio, MI (95% CI)", "setting": "[1]; [13]", "value": "0.94 (0.68-1.30)"},
      {"measurement": "Relative Risk Ratio, Primary (95% CI)", "setting": "[1]; [13]", "value": "0.92 (0.69-1.22)"},
      {"measurement": "Relative Risk Ratio, Stroke (95% CI)", "setting": "[1]; [13]", "value": "0.85 (0.46-1.57)"},
      {"measurement": "Relative Risk Ratio, CV death (95% CI)", "setting": "[1]; [14]", "value": "0.64 (0.21-1.92)"},
      {"measurement": "Relative Risk Ratio, MI (95% CI)", "setting": "[1]; [14]", "value": "0.83 (0.33-2.06)"},
      {"measurement": "Relative Risk Ratio, Primary (95% CI)", "setting": "[1]; [14]", "value": "0.84 (0.40-1.79)"},
      {"measurement": "Relative Risk Ratio, Stroke (95% CI)", "setting": "[1]; [14]", "value": "2.24 (0.41-12.4)"},
      {"measurement": "Relative Risk Ratio, CV death (95% CI)", "setting": "[1]; [15]", "value": "1.0 (0.53-1.93)"},
      {"measurement": "Relative Risk Ratio, MI (95% CI)", "setting": "[1]; [15]", "value": "0.99 (0.45-2.18)"},
      {"measurement": "Relative Risk Ratio, Primary (95% CI)", "setting": "[1]; [15]", "value": "1.08 (0.72-1.61)"},
      {"measurement": "Relative Risk Ratio, Stroke (95% CI)", "setting": "[1]; [15]", "value": "0.99 (0.45-2.18)"},
      {"measurement": "Relative Risk Ratio, CV death (95% CI)", "setting": "[1]; [16]", "value": "0.45 (0.23-0.90)"},
      {"measurement": "Relative Risk Ratio, MI (95% CI)", "setting": "[1]; [16]", "value": "0.57 (0.33-0.97)"},
      {"measurement": "Relative Risk Ratio, Primary (95% CI)", "setting": "[1]; [16]", "value": "0.70 (0.45-1.10)"},
      {"measurement": "Relative Risk Ratio, Stroke (95% CI)", "setting": "[1]; [16]", "value": "1.15 (0.47-2.82)"},
      {"measurement": "benefit of vitamin E therapy for any of the primary CV outcomes", "setting": "[1]; DM patients, other haptoglobin phenotypes (Hp 1-1 and Hp 2-1)", "value": "no significant benefit"},
      {"measurement": "benefit of vitamin E supplementation for any of the primary CV outcomes", "setting": "[1]; [10]", "value": "no significant benefit"},
      {"measurement": "benefit of vitamin E supplementation", "setting": "[1]; unselected DM group", "value": "no significant benefit; also recorded: no apparent benefit"},
      {"measurement": "clinical benefit on cardiovascular (CV) outcomes", "setting": "[3]", "value": "failed to demonstrate any clinical benefit"}
    ]}
  ]
}
